In patent US20020127182A1, “Paramagnetic metal ion-based macrocylic magnetization transfer contrast agents and method of use” (Board of Regents, The University of Texas System, priority 2000, published 2002):

How the values were obtained:
Format in all cases: physicochemical
[1] = 1H NMR spectra of Ln(9)^3+ complexes, exchangeable amide protons
Source text: For certain Ln(9)^3+ complexes, for example, with Ln equal to Yb or Tm, the bound water molecules are ^1H NMR invisible probably due to the fast exchange between the bound water and the bulk water. […] Unfortunately, the NMR signal was invisible, probably due to its fast exchange with the bulk water. However, the eight exchangeable amide protons present as two resonance peaks with equivalent intensity, at −14.5 (Ha) and −17.7 (Hb) ppm, respectively, are visible.

[2] = pH dependence of amide proton (Ha, Hb) lifetimes τM^298 and Δω•τM of Yb(9)^3+
Source text: As indicated by their linewidths, illustrated in FIG. 24, the two exchangeable amide sites have different dependences upon pH. As further illustrated in FIG. 25, Hb exchanges about 1.3 times faster than that of Ha. […] Similar to that discussed above for Ln(1)^3+, either too fast or too slow exchange may produce less MT. For the conditions used to obtain the data presented in Table 2, the maximum MT effect appear to be obtained for Ln(9)^3+ complexes when the exchange limiting regime is about 15.

[3] = Effect of saturation duration on MT with Yb(9)^3+ (bulk water 1H NMR); conditions: 5 mM, pH 7.4, 25° C.; saturating pulse of about 2 s or longer centered between amide proton signals, bandwidth 1500 Hz
Description: An eleventh series of experiments was conducted to examine the effect of saturation duration on the magnitude of MT obtained using the Yb(9)^3+ complex. […] The upper series of spectra (a) were obtained while applying a saturating pulse of different duration and centered between the resonance signals of the exchangeable amide protons, with a saturating bandwidth of 1500 Hz. The saturating bandwidth was produced using conventional water elimination technique (i.e., a wet1d pulse sequence). See Varian User Manual; Varian NMR, Palo Alto, Calif.; User Guide, VNMR Version 6.1 software, 1997), incorporated herein by reference. The pulse sequence to produce saturation was modified to include hard loops to shape the pulse train (90° e-burp1, typically repeated from about 0 to about 500 times) with a bandwidth of 1500 Hz (pwwet=3.0 ms and wetpwr=28 db). The lower series (b) of spectra, shown inverted to facilitate comparison to series (a), were obtained while applying the same saturating pulse, but on the opposite side and equal distance away from the bulk water MR signal. As the illustrated in FIG. 26, for a saturating pulse of about 2 s or longer, about a 38% decrease in the bulk water signal was obtained for series (a).

chemical shift of amide protons, first set (Ha) [1]: −14.5 ppm | chemical shift of amide protons, second set (Hb) [1]: −17.7 ppm | Hb exchanges faster than Ha [2]: about 1.3 times | exchange limiting regimes Δω•τM of both amide protons ([2]; 7.05 T, broad range of pH values): > 1 | τM^298, Ha ([2]; pH 6.46): 5.00 ms | τM^298, Hb ([2]; pH 6.46): 4.00 ms | Δω•τM^298, Ha ([2]; pH 6.46, 7.05 T): 139.3 | Δω•τM^298, Hb ([2]; pH 6.46, 7.05 T): 133.7 | τM^298, Ha ([2]; pH 6.76): 2.30 ms | τM^298, Hb ([2]; pH 6.76): 1.78 ms | Δω•τM^298, Ha ([2]; pH 6.76, 7.05 T): 64.1 | Δω•τM^298, Hb ([2]; pH 6.76, 7.05 T): 59.5 | τM^298, Ha ([2]; pH 7.06): 1.21 ms | τM^298, Hb ([2]; pH 7.06): 0.82 ms | Δω•τM^298, Ha ([2]; pH 7.06, 7.05 T): 33.6 | Δω•τM^298, Hb ([2]; pH 7.06, 7.05 T): 27.2 | τM^298, Ha ([2]; pH 7.21): 0.92 ms | τM^298, Hb ([2]; pH 7.21): 0.72 ms | Δω•τM^298, Ha ([2]; pH 7.21, 7.05 T): 25.5 | Δω•τM^298, Hb ([2]; pH 7.21, 7.05 T): 24.2 | τM^298, Ha ([2]; pH 7.43): 0.64 ms | τM^298, Hb ([2]; pH 7.43): 0.52 ms | Δω•τM^298, Ha ([2]; pH 7.43, 7.05 T): 17.9 | Δω•τM^298, Hb ([2]; pH 7.43, 7.05 T): 17.4 | τM^298, Ha ([2]; pH 7.84): 0.57 ms | τM^298, Hb ([2]; pH 7.84): 0.44 ms | Δω•τM^298, Ha ([2]; pH 7.84, 7.05 T): 15.9 | Δω•τM^298, Hb ([2]; pH 7.84, 7.05 T): 14.7
Compound: NC(=O)CN1CCN(CC(N)=O)CCN(CC(N)=O)CCN(CC(N)=O)CC1.[Yb+3] [Yb(9)^3+]
decrease in the bulk water signal, series (a) [3]: ~38%
